Where a SMILES comes first, the peptide text is derived from it. [ ]: non-standard residue; d: D form. The star is where a group is joined. dPhe(4-NHCONH2) = NC(=O)Nc1ccc(C[C@@H](N)C(=O)O)cc1; Dihydroorotyl(S) = O=C1C[C@@H](C(=O)*)NC(=O)N1; dPhe(4-Cl) = N[C@H](Cc1ccc(Cl)cc1)C(=O)O; Phe(4-NH2) = Nc1ccc(C[C@H](N)C(=O)O)cc1; d2Nal = N[C@H](Cc1ccc2ccccc2c1)C(=O)O; Lys(iPr) = CC(C)NCCCC[C@H](N)C(=O)O; d3Pal = N[C@H](Cc1cccnc1)C(=O)O
Assays:
Assay type in all cases: in vivo, mouse
[1] = system: committed hematopoietic progenitor cells; assay: Colony-forming unit activity of BM from L-TBI mice; details: day 7 after L-TBI
Protocol: To investigate the specific regenerative effects mediated by LHRH-Ant treatment on the hematopoietic stem and progenitor cell (HSPC) compartment, BM were analyzed at several time points after L-TBI. […] To determine hematopoietic functional potential, colony-forming unit activity was next quantified to determine the effects of LHRH-Ant on the recovery of committed hematopoietic progenitor cells. […] Consistent with these functional findings, on day 14 after L-TBI, expansion of LSKs as well as their downstream progenitors in mice given LHRH-Ant were found (FIGS. 2F, 2G). […] However, given the changes in HSC phenotype after radiation, the standard competitive repopulation functional assay was adapted to evaluate the presence and relative quantity of functional HSCs after L-TBI. […]
Colony-Forming Cell (CFC) and Cobblestone Areas Forming Cell (CAFC): Assays were performed as previously described with a minor modifications^50. […] Colonies were scored after 10 days of incubation at 37° C. and 5% CO2. […] After 3 weeks of co-culture, CAFCs were scored as phase-dark hematopoietic clones of at least 5 cells beneath the stromal layer using an inverted microscope.

LT-HSCs = assay: Cell cycle status of HSCs (Ki-67/DAPI) after L-TBI; details: vs vehicle
From the text: The control of HSC self-renewal, differentiation, and proliferation is a tightly regulated process crucial for maintaining the HSC pool^29-34. This is particularly relevant during hematopoietic injuries (such as high dose or repeated rounds of chemotherapy or irradiation) when dormant HSCs transiently start to proliferate to replenish blood cells as unbalanced HSC proliferation can lead to stem cell exhaustion and long-term myelosuppression^35-37. […] Although there is a clear need for HSC proliferation to ensure regenerative hematopoiesis, previous reports have also shown that induction of HSC quiescence after high-dose irradiation correlates with increased hematopoietic recovery and enhanced mouse survival^35,37,41.
Flow cytometry and cell cycle analysis: Monoclonal antibodies recognizing the following markers were used for flow cytometric analyses and cell sorting of murine cells (LSR II or FACSAria III, BD Biosciences): (from BD Pharmingen) c-kit (2B8), Sca-1 (D7), CD11b (M1/70), CD11c (HL3), CD19 (ID3), CD3ϵ (145-2C11), CD34 (RAM34), CD45 (30-F11), CD45.1 (A20), CD45.2 (104), CD48 (HM48-1), CD62L (MEL-14), CD135 (A2F10.1), Gr-1 (RB6-8C5), NK1.1 (PK136), TER-119 (TER-119); (from eBioscience) CD127 (A7R34), CD150 (mShad150); (from Invitrogen) B220 (RA3-6B2) and streptavidin (N/A). […]

[2] = Hormone levels (testosterone, LH, FSH) after L-TBI

With `CC(=O)N[C@H](Cc1ccc2ccccc2c1)C(=O)N[C@H](Cc1ccc(Cl)cc1)C(=O)N[C@H](Cc1cccnc1)C(=O)N[C@@H](CO)C(=O)N[C@@H](Cc1ccc(NC(=O)[C@@H]2CC(=O)NC(=O)N2)cc1)C(=O)N[C@H](Cc1ccc(NC(N)=O)cc1)C(=O)N[C@@H](CC(C)C)C(=O)N[C@@H](CCCCNC(C)C)C(=O)N1CCC[C@H]1C(=O)N[C@H](C)C(N)=O` [LHRH-Ant, Degarelix] (Ac-[d2Nal][dPhe(4-Cl)][d3Pal]S[Phe(4-NH2)](Dihydroorotyl(S))[dPhe(4-NHCONH2)]L[Lys(iPr)]P[dA]-NH2) the BFU-E colonies [1] was “significant increase”, the CFU-GM colonies [1] was “significant increase” and the “proliferative HSCs” value (LT-HSCs) was “fewer proliferative HSCs”. The “proportion of Ki-67− quiescent LT-HSCs” value (LT-HSCs) was “significantly higher proportion”, the level of testosterone ([2]; after radiation) was “did not significantly lower the level of testosterone” and the “level of FSH” value ([2]; irradiated mice) was “dramatically decreased”. For the same molecule, the “level of LH” value ([2]; irradiated mice) was “dramatically decreased”.

— patent US12295973B2 (Fred Hutchinson Cancer Center, priority 2017, dated 2025)
